The text below walks through data of EP0897904B1, “Fungicidal 2-methoxybenzophenones” (BASF AKTIENGESELLSCHAFT, priority 1997, dated 1999).

What all share (format): in vivo
In test [1] the test system is Blumeria (Erysiphe) graminis DC. f.sp. tritici E. Marchal. In words: Zero day protectant test, Wheat Powdery Mildew (WPM). The settings on record: wheat variety Kanzler, 0 day protectant test, side-by-side, technical material in 0.5% acetone 0.05% Tween 20 water. The text has this:
(§1) • (a) Wheat Powdery Mildew (WPM): HOST: Wheat (Triticum aestivum L.) variety Kanzler PATHOGEN: Blumeria (Erysiphe) graminis DC. f.sp. tritici E. Marchal • (b) Barley Powdery Mildew (BPM): HOST: Barley (Hordeum vulgare L.) variety Golden Promise PATHOGEN: Blumeria (Erysiphe) graminis DC. f.sp. hordei E. Marchal
(§2) This test is a zero day protectant test for control of wheat and barley powdery mildews. • 1. Wheat or barley seed (approximately 8-10/pot) is planted in 6 cm diameter plastic pots and maintained in the greenhouse. • 2. When the primary leaf is fully expanded, formulated test compounds are sprayed with a single nozzle overhead track sprayer at a rate of 200 l/ha. Plants are then allowed to air-dry. • 3. Inoculation follows about three hours after compound application. Plants are set up on greenhouse benches with bottom watering mats and inoculated by dusting them with conidia from powdery mildew infected plants (stock cultures at an age of 10-14 days). • 4. Disease on the primary leaf as percent leaf area with disease symptoms/signs is evaluated about 7 days after inoculation. The tips and bases of the leaves are excluded from the evaluation. Percent disease control is then calculated by the following formula: % disease control = 100 -(% infection in treated plants)/(% infection in untreated plants)x 100 [formula]
(§3) • 1. Technical compounds are formulated in a solvent/surfactant system consisting of […] acetone and 0.05% Tween 20 in deionized water. Compounds are dissolved in acetone prior to addition of the water; the Tween 20 can be added through either the acetone or the water. Dilutions are made using the solvent/surfactant system. Test compounds are typically tested over a range of concentrations covering several orders of magnitude and then ED values are calculated for comparison of compounds. Formulated compounds are prepared using deionized water. • 2. Two kinds of controls are included: • Plants treated with the solvent/surfactant solution and inoculated (Solvent Blank). • Untreated plants which are inoculated (Inoculated Control).
(§4) Compounds applied as technical material formulated in 0.5% acetone 0.05% Tween 20 water

For test [2] the test system is unchanged. In words: Curative and residual control test, Wheat Powdery Mildew (WPM). The settings on record: read-out: Disease control (% efficacy). From the text: (§5) • (a) Wheat Powdery Mildew (WPM): HOST: Wheat (Triticum aestivum L.) variety Kanzler PATHOGEN: Blumeria (Erysiphe) graminis DC. f.sp. tritici E. Marchal • (b) Cucumber Powdery Mildew (QPM): HOST: Cucumber (Cucumis sativus L.) variety Bush pickle PATHOGEN: Erysiphe cichoracearum DC
(§6) This test procedure is for curative and residual control of powdery mildew diseases. • 1. Wheat seed (approximately 8-10/pot) or cucumber seed (1 seed / pot) is planted in 6 cm diameter plastic pots and maintained in the greenhouse. • 2. When the primary leaf (wheat) or the cotyledons (cucumber) is/are fully expanded, formulated test compounds are sprayed with a single nozzle overhead track sprayer at a rate of 200 l/ha. Plants are then allowed to air-dry. • 3. Inoculation precedes treatment by 2 or 3 days in the case of curative evaluations and follows treatment by 3 or 4 days in case of residual evaluations. For inoculation, plants are set up on greenhouse benches with bottom watering mats and inoculated by dusting them with conidia from powdery mildew infected plants (stock cultures at an age of 10-14 days). Between inoculation and treatment for curative evaluations and between treatment and inoculation for residual evaluations, plants are maintained in the greenhouse with bottom watering. • 4. Disease on the primary leaf (wheat) or on the cotyledons (cucumber) as percent leaf area with disease symptoms/signs is evaluated about 7 days after inoculation. In the case of wheat, the tips and bases of the leaves are excluded from the evaluation. Percent disease control is then calculated by the following formula: % disease control = 100 -(% infection in treated plants)/(% infection in untreated plants)x 100 [formula]
(§7) • 1. Technical compounds are formulated in a solvent/surfactant system consisting of 5% acetone and 0.05% Tween 20 in deionized water. Compounds are dissolved in acetone prior to addition of the water; the Tween 20 can be added through either the acetone or the water. Dilutions are made using the solvent/surfactant system. Formulated compounds are prepared using deionized water. • 2. Two kinds of controls are included: • Plants treated with the solvent/surfactant solution and inoculated (Solvent Blank). • Untreated plants which are inoculated (Inoculated Control).

For test [3], the system named is Blumeria (Erysiphe) graminis DC. f.sp. hordei E. Marchal. In words: Zero day protectant test, Barley Powdery Mildew (BPM). The conditions noted are these: barley variety Golden Promise, 0 day protectant test, side-by-side, technical material in 0.5% acetone 0.05% Tween 20 water.
Description: as §1, §2, §3, §4

The test system of test [4] is Erysiphe cichoracearum DC. In words: Curative and residual control test, Cucumber Powdery Mildew (QPM). The settings on record: Golovinomyces cichoracearum, 72 h, read-out: Disease control (% efficacy); for Emax at 12.5 ppm: QPM 3 da R (3 day residual), 12,5 ppm; for Emax at 125 ppm / Emax at 1250 ppm: QPM 3 da R (3 day residual).
Description: as §5, §6, §7

Setting [5] is: 48 h, WPM 2 da C (2 day curative), 12,5 ppm, Test B.
The mark [6] stands for this setting: 48 h, WPM 2 da C (2 day curative), 125 ppm, Test B.
Setting [7] is: 48 h, WPM 2 da C (2 day curative), 1250 ppm, Test B.
Setting [8] is: 72 h, WPM 3 da R (3 day residual), 12,5 ppm, Test B.
Setting [9] is: 72 h, WPM 3 da R (3 day residual), 125 ppm, Test B.
[10] abbreviates: 72 h, WPM 3 da R (3 day residual), 1250 ppm, Test B.
The mark [11] stands for this setting: 72 h, WPM 3 da C (3 day curative).
Setting [12] is: 72 h, WPM 3 da C (3 day curative), 125 ppm.
[13] abbreviates: 96 h, WPM 4 da R (4 day residual).
The mark [14] stands for this setting: 96 h, WPM 4 da R (4 day residual), 125 ppm.

Where two headings read alike, the source gives them in different places.

On to `COc1cc(C)c(C(=O)c2c(OC)ccc(Br)c2Cl)c(OC)c1OC` [Example 4, 5-bromo-6-chloro-6'-methyl-2,2',3',4'-tetramethoxy-benzophenone], for which the “ED90 (ppm)” value is 5 ppm in test [1] and 7 ppm in test [3]. The values for the percent disease control at 12.5 ppm in test [2] (setting [5]) and in test [2] (setting [8]) were 55% and 99%, respectively. The percent disease control at 125 ppm in test [2] (setting [6]) was 71%; in test [2] (setting [9]) it was 100%. Further, the percent disease control at 1250 ppm in test [2] (setting [7]) stood at 61%; in test [2] (setting [10]) it was 100%. Moreover, the Emax at 12.5 ppm in test [4] (Test B) came out at 8%. Further, the Emax at 125 ppm in test [4] (Test B) came to 97%. The Emax at 1250 ppm in test [4] (Test B) worked out at 100%.
`COc1cc(C)c(C(=O)c2c(OC)ccc(Br)c2C)c(OC)c1OC` [Example 6, 5-bromo-6,6'-dimethyl-2,2',3',4'-tetramethoxy-benzophenone]: the “ED90 (ppm)” value in test [1] amounted to 0.1 ppm; in test [3] it was 0.9 ppm. The percent disease control at 12.5 ppm is 90% in test [2] (48 h, WPM 2 da C (2 day curative), 12,5 ppm, Test A); 100% in test [2] (72 h, WPM 3 da R (3 day residual), 12,5 ppm, Test A); 100% in test [2] (setting [8]). Further, the results for the Emax at 12.5 ppm in test [2] (setting [5]), in test [4] (Test A) and in test [4] (Test B) were 61%, 2% and 35%, respectively. In addition, the percent disease control at 125 ppm in test [2] (48 h, WPM 2 da C (2 day curative), 125 ppm, Test A) was 95%; in test [2] (setting [12]), 64%; in test [2] (72 h, WPM 3 da R (3 day residual), 125 ppm, Test A) it was 100%; in test [2] (setting [9]) it was 100%; in test [2] (setting [14]), 100%. The Emax at 125 ppm in test [2] (setting [6]) stood at 89%; in test [4] (Test A) it was 92%; in test [4] (Test B) it was 92%. In addition, the percent disease control at 1250 ppm came out at 98% in test [2] (48 h, WPM 2 da C (2 day curative), 1250 ppm, Test A); 100% in test [2] (72 h, WPM 3 da R (3 day residual), 1250 ppm, Test A); 100% in test [2] (setting [10]). Also, the Emax at 1250 ppm came out at 87% in test [2] (setting [7]), 100% in test [4] (Test A) and 100% in test [4] (Test B). In addition, the percent disease control at 0.2 ppm in test [2] (setting [11]) came to 17%; in test [2] (setting [13]), 58%. For the same compound, the percent disease control at 1 ppm in test [2] (setting [11]) amounted to 27%; in test [2] (setting [13]), 90%. The percent disease control at 5 ppm in test [2] (setting [11]) is 43%; in test [2] (setting [13]) it was 100%. Also, the results for the percent disease control at 25 ppm in test [2] (setting [11]) and in test [2] (setting [13]) were 60% and 100%, respectively.
Take `COc1cc(C)c(C(=O)c2c(OC)ccc(C(F)(F)F)c2C)c(OC)c1OC` [Example 64, 6,6'-dimethyl-2,2',3',4'-tetramethoxy-5-trifluoromethyl-benzophenone]: in test [2] (setting [11]), the percent disease control at 0.2 ppm came out at 10%, the percent disease control at 1 ppm came out at 37%, the percent disease control at 5 ppm was found to be 48% and the percent disease control at 25 ppm was 60%. In addition, in test [2] (setting [12]), the percent disease control at 125 ppm amounted to 72%. In test [2] (setting [13]), the percent disease control at 0.2 ppm came out at 51%, the percent disease control at 1 ppm stood at 89%, the percent disease control at 5 ppm was 99% and the percent disease control at 25 ppm came out at 100%. For the same compound, the percent disease control at 125 ppm in test [2] (setting [14]) is 100%.
In the case of `COc1cc(C)c(C(=O)c2c(OC)cccc2C(F)(F)F)c(OC)c1OC` [Example 65, 6'-methyl-2,2',3',4'-tetramethoxy-6-trifluoromethyl-benzophenone], in test [2] (setting [11]), the percent disease control at 0.2 ppm is 10%, the percent disease control at 1 ppm was found to be 23%, the percent disease control at 5 ppm stood at 23% and the percent disease control at 25 ppm amounted to 48%. For the same compound, the percent disease control at 125 ppm in test [2] (setting [12]) came out at 58%. In addition, in test [2] (setting [13]), the percent disease control at 0.2 ppm stood at 25%, the percent disease control at 1 ppm stood at 50%, the percent disease control at 5 ppm was determined as 93% and the percent disease control at 25 ppm was determined as 99%. Moreover, the percent disease control at 125 ppm in test [2] (setting [14]) was 100%.
For the compound `Fc1ccc(Oc2ccnc3cc(Cl)cc(Cl)c23)cc1` [Quinoxyfen, reference compound], the results for the “ED90 (ppm)” value in test [1] and in test [3] were 12 ppm and 26 ppm, respectively.
